Reference: the kinase profiling compilation of Christmann-Franck et al. (2016)

Legend:
AKT3 (human) = AKT3 (human) (UniProt Q9Y243); assay: SelectScreen, TR FRET; conditions: compound 5.0 µM
PASK (human) = PASK (human) (UniProt Q96RG2); assay: SelectScreen, TR FRET; conditions: compound 5.0 µM
ADRBK1 (human) = ADRBK1 (human) (UniProt P25098); assay: SelectScreen, TR FRET; conditions: compound 5.0 µM
FGFR3 (human) [1] = target: FGFR3 (human) (UniProt P22607); assay: SelectScreen, TR FRET; conditions: compound 5.0 µM
Sequence of FGFR3 (human) (P22607 whole entry, looked up): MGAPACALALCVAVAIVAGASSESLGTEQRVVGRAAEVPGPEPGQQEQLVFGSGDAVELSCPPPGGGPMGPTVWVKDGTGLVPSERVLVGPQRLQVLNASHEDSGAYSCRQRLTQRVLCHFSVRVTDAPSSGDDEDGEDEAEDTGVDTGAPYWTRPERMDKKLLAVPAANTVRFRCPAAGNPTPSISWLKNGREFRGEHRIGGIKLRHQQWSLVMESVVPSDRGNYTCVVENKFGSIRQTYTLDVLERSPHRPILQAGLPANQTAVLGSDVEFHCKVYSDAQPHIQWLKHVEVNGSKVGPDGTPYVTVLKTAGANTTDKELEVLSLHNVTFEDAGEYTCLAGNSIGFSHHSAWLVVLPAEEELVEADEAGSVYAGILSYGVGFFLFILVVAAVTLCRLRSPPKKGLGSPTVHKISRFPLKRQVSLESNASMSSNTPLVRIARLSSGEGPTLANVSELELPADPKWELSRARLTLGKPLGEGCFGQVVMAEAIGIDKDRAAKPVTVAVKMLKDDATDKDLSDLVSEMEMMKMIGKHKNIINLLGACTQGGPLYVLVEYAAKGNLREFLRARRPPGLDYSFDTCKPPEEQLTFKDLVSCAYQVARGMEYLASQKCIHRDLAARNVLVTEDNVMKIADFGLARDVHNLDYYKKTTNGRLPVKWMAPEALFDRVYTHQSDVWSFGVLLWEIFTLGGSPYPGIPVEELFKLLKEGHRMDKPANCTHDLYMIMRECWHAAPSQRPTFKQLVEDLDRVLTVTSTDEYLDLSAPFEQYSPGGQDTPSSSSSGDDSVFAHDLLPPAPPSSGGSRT

CLK1 (human) = CLK1 (human) (UniProt P49759); assay: SelectScreen, TR FRET; conditions: compound 5.0 µM
GSK3A (human) = GSK3A (human) (UniProt P49840); assay: SelectScreen, TR FRET; conditions: compound 5.0 µM
MAP4K2 (human) = MAP4K2 (human) (UniProt Q12851); assay: SelectScreen, TR FRET; conditions: compound 5.0 µM
[2] = test system: ABL1 (human), P00519 [Y253F]; assay: SelectScreen, TR FRET; conditions: compound 5.0 µM
HCK (human) = HCK (human) (UniProt P08631); assay: SelectScreen, TR FRET; conditions: compound 5.0 µM
Sequence of HCK (human) (P08631 whole entry, looked up): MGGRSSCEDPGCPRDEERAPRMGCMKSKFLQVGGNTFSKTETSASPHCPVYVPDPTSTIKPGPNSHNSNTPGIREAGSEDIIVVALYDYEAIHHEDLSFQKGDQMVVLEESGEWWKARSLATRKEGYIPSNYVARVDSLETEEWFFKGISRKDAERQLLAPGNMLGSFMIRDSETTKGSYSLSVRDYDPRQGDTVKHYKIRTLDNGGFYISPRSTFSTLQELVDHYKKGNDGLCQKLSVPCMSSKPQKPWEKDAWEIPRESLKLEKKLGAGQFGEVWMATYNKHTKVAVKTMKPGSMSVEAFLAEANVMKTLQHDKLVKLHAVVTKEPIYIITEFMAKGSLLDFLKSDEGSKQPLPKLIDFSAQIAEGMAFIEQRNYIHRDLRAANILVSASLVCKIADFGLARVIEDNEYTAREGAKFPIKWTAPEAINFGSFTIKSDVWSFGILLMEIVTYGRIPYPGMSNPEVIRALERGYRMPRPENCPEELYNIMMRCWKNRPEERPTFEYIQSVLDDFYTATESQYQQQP

MAP2K1 (human) = MAP2K1 (human) (UniProt Q02750); assay: SelectScreen, TR FRET; conditions: compound 5.0 µM
Sequence of MAP2K1 (human) (Q02750 whole entry, looked up): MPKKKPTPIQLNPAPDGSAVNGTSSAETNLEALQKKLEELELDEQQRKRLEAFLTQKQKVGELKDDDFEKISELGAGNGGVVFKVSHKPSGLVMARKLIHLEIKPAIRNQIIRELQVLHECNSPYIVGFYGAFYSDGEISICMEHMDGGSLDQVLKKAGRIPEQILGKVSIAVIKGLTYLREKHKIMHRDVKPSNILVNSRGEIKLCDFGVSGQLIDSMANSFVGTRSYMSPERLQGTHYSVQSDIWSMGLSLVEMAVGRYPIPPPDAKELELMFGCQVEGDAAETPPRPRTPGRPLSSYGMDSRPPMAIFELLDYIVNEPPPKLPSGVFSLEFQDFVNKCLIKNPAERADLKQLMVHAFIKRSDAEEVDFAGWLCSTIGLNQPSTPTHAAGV

TBK1 (human) = TBK1 (human) (UniProt Q9UHD2); assay: SelectScreen, TR FRET; conditions: compound 5.0 µM
PRKD2 (human) = PRKD2 (human) (UniProt Q9BZL6); assay: SelectScreen, TR FRET; conditions: compound 5.0 µM
MAPK12 (human) = MAPK12 (human) (UniProt P53778); assay: SelectScreen, TR FRET; conditions: compound 5.0 µM
PTK2 (human) = PTK2 (human) (UniProt Q05397); assay: SelectScreen, TR FRET; conditions: compound 5.0 µM
LYN (human) = LYN (human) (UniProt P07948); assay: SelectScreen, TR FRET; conditions: compound 5.0 µM
RPS6KA5 KD1 KD2 (human) = RPS6KA5 KD1 KD2 (human) (UniProt O75582); assay: SelectScreen, TR FRET; conditions: compound 5.0 µM
RET (human) = RET (human) (UniProt P07949); assay: SelectScreen, TR FRET; conditions: compound 5.0 µM
MAPK13 (human) = MAPK13 (human) (UniProt O15264); assay: SelectScreen, TR FRET; conditions: compound 5.0 µM
MST4 (human) = MST4 (human) (UniProt Q9P289); assay: SelectScreen, TR FRET; conditions: compound 5.0 µM
EPHA5 (human) = EPHA5 (human) (UniProt P54756); assay: SelectScreen, TR FRET; conditions: compound 5.0 µM
Sequence of EPHA5 (human) (P54756 whole entry, looked up): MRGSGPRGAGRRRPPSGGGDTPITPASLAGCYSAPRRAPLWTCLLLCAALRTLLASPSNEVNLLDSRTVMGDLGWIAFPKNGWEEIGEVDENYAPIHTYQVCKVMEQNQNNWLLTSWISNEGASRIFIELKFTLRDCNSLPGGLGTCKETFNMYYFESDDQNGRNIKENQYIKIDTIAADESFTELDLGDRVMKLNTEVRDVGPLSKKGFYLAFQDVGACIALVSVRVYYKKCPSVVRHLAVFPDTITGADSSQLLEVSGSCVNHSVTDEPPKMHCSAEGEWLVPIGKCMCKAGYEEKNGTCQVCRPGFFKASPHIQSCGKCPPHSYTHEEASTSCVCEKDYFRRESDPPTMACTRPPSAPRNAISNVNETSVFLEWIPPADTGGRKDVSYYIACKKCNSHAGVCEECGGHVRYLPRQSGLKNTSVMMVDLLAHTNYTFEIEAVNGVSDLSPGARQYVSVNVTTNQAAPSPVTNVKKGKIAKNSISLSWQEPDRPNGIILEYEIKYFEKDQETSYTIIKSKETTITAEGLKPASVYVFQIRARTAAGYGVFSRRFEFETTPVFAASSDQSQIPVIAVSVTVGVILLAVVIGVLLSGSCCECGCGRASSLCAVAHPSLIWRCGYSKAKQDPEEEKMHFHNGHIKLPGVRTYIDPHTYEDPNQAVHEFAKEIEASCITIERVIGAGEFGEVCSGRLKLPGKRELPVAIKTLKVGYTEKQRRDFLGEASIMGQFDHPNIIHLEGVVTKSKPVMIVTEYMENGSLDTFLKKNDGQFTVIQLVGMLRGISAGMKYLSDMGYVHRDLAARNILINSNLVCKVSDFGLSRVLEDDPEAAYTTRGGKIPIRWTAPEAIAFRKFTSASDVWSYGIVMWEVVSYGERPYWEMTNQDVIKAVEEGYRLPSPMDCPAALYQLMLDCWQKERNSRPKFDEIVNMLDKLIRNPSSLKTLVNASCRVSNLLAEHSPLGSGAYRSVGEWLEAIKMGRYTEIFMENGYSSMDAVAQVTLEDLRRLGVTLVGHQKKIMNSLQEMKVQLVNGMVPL

CSK (human) = CSK (human) (UniProt P41240); assay: SelectScreen, TR FRET; conditions: compound 5.0 µM
IGF1R (human) = IGF1R (human) (UniProt P08069); assay: KINOMEscan competition binding; conditions: compound 1.0 µM
FGFR3 (human) [3] = target: FGFR3 (human) (UniProt P22607); assay: KINOMEscan competition binding; conditions: compound 1.0 µM
STK38 (human) = STK38 (human) (UniProt Q15208); assay: KINOMEscan competition binding; conditions: compound 1.0 µM
[4] = test system: RET (human), P07949 [M918T]; assay: KINOMEscan competition binding; conditions: compound 1.0 µM
IRAK3 (human) = IRAK3 (human) (UniProt Q9Y616); assay: KINOMEscan competition binding; conditions: compound 1.0 µM
[5] = test system: FLT3 (human), P36888 [K663Q]; assay: KINOMEscan competition binding; conditions: compound 1.0 µM
GRK1 (human) = GRK1 (human) (UniProt Q15835); assay: KINOMEscan competition binding; conditions: compound 1.0 µM
Sequence of GRK1 (human) (Q15835 whole entry, looked up): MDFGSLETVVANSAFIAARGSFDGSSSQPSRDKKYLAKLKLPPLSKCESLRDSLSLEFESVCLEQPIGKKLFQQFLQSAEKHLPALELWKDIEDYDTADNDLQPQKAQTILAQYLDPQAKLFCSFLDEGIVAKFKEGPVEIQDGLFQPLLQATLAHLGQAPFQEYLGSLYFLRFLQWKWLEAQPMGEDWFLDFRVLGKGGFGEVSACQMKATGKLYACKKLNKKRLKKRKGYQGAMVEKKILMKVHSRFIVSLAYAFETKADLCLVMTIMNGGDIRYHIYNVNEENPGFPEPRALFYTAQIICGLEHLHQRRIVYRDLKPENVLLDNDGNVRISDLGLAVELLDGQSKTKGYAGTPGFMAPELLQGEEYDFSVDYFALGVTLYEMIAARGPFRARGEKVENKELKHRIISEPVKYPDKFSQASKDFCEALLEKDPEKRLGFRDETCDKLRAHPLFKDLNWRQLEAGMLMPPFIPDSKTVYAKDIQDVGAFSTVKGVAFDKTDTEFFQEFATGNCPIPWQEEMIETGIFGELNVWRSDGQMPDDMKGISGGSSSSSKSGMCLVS

[6] = target: JAK3 JH1 catalytic (human) (UniProt P52333); assay: KINOMEscan competition binding; conditions: compound 1.0 µM
PDGFRB (human) = PDGFRB (human) (UniProt P09619); assay: KINOMEscan competition binding; conditions: compound 1.0 µM
ERBB4 (human) = ERBB4 (human) (UniProt Q15303); assay: KINOMEscan competition binding; conditions: compound 1.0 µM
MLTK (human) = MLTK (human) (UniProt Q9NYL2); assay: KINOMEscan competition binding; conditions: compound 1.0 µM
PIM3 (human) = PIM3 (human) (UniProt Q86V86); assay: KINOMEscan competition binding; conditions: compound 1.0 µM
RPS6KA6 KD1 (human) = RPS6KA6 KD1 (human) (UniProt Q9UK32); assay: KINOMEscan competition binding; conditions: compound 1.0 µM
Sequence of RPS6KA6 KD1 (human) (Q9UK32 whole entry, looked up): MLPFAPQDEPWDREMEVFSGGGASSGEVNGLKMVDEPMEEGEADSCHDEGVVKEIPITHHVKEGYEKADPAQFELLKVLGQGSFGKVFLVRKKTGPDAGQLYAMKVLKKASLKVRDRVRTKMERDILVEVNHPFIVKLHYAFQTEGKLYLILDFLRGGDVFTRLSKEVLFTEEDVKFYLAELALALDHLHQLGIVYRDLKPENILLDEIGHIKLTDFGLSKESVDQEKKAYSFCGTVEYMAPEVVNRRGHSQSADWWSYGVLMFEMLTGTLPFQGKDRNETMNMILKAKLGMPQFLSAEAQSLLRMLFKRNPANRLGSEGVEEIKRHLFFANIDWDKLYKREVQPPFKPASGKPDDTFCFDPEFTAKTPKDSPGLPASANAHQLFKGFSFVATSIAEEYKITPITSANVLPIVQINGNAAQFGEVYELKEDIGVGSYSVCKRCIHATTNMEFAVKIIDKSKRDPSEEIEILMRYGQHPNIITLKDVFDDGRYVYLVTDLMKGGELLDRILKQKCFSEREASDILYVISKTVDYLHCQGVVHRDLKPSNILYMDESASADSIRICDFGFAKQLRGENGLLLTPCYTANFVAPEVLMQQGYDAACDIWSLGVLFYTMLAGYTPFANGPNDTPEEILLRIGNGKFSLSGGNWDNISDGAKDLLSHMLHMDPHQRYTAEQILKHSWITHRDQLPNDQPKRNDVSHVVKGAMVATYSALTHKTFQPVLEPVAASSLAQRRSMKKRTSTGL

RIPK4 (human) = RIPK4 (human) (UniProt P57078); assay: KINOMEscan competition binding; conditions: compound 1.0 µM
CDK17 (human) = CDK17 (human) (UniProt Q00537); assay: KINOMEscan competition binding; conditions: compound 1.0 µM
TGFBR2 (human) = TGFBR2 (human) (UniProt P37173); assay: KINOMEscan competition binding; conditions: compound 1.0 µM
TAOK3 (human) = TAOK3 (human) (UniProt Q9H2K8); assay: KINOMEscan competition binding; conditions: compound 1.0 µM
ZAP70 (human) = ZAP70 (human) (UniProt P43403); assay: KINOMEscan competition binding; conditions: compound 1.0 µM
Sequence of ZAP70 (human) (P43403 whole entry, looked up): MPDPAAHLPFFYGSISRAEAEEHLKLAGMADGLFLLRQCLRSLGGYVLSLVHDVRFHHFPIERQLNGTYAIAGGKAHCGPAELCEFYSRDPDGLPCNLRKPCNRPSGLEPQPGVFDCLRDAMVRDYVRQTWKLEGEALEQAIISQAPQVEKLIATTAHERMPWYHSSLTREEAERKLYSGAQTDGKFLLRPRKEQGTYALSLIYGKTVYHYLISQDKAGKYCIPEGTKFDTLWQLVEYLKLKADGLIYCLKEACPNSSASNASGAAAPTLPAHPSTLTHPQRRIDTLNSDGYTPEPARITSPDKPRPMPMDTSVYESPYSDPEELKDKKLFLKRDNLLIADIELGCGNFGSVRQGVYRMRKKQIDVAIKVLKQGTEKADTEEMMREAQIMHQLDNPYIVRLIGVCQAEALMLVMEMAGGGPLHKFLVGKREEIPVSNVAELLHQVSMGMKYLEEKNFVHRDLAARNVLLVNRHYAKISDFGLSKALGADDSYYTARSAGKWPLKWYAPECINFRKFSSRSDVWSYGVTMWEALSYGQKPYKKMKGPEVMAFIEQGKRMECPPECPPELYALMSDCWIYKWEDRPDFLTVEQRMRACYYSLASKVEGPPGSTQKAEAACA

[7] = test system: KIT (human), P10721 [V559D/V654A]; assay: KINOMEscan competition binding; conditions: compound 1.0 µM

With Nc1cc(C(F)(F)F)c(-c2cc(N3CCOCC3)nc(N3CCOCC3)n2)cn1 the inhibition (AKT3 (human)) was 3%, the inhibition (PASK (human)) was -1% and the inhibition (ADRBK1 (human)) was 1%. For the same compound, the inhibition (FGFR3 (human) [1]) was 2%, the inhibition (CLK1 (human)) was 32% and the inhibition (GSK3A (human)) was 5%. It also gave an inhibition (MAP4K2 (human)) of 6%, an inhibition [2] of 1% and an inhibition (HCK (human)) of 10%. The inhibition (MAP2K1 (human)) was 4%, the inhibition (TBK1 (human)) was 7% and the inhibition (PRKD2 (human)) was 2%. It also gave an inhibition (MAPK12 (human)) of 3%, an inhibition (PTK2 (human)) of 4% and an inhibition (LYN (human)) of 6%. It also gave an inhibition (RPS6KA5 KD1 KD2 (human)) of 8%, an inhibition (RET (human)) of -4% and an inhibition (MAPK13 (human)) of 2%. For the same compound, the inhibition (MST4 (human)) was -3%, the inhibition (EPHA5 (human)) was 0% and the inhibition (CSK (human)) was 5%. The inhibition of binding (IGF1R (human)) was 0%, the inhibition of binding (FGFR3 (human) [3]) was 7% and the inhibition of binding (STK38 (human)) was 1%. It also gave an inhibition of binding [4] of 13%, an inhibition of binding (IRAK3 (human)) of 0% and an inhibition of binding [5] of 0%. The inhibition of binding (GRK1 (human)) was 0%, the inhibition of binding [6] was 100% and the inhibition of binding (PDGFRB (human)) was 0%. For the same compound, the inhibition of binding (ERBB4 (human)) was 7%, the inhibition of binding (MLTK (human)) was 0% and the inhibition of binding (PIM3 (human)) was 5%. For the same compound, the inhibition of binding (RPS6KA6 KD1 (human)) was 0%, the inhibition of binding (RIPK4 (human)) was 0% and the inhibition of binding (CDK17 (human)) was 26%. It also gave an inhibition of binding (TGFBR2 (human)) of 24%, an inhibition of binding (TAOK3 (human)) of 10% and an inhibition of binding (ZAP70 (human)) of 4%. It also gave an inhibition of binding [7] of 0%.
